Data set [1] in a line: Pharmacokinetics assay in rats, intragastric administration. It is filed as in vivo. The settings on record: Sprague-Dawley, rat, po, male SD rats, 5 mg/kg; for Vd/F: read-out: Apparent Distribution Volume Vz/F; for AUC: read-out: Area Under Curve AUC; for CL/F: read-out: Clearance CLz/F; for half-life: read-out: Half-Life T½ (converted); for MRT: read-out: Mean Residence Time MRT; for Cmax: read-out: Plasma Conc. Cmax. As for the experimental part:
Male rats were used as test animals. The compounds of Example 6, Example 9, Example 11, Example 13, Example 15, Example 16, Example 17, Example 44, and Example 45 were administered intragastrically to rats to determine the drug concentration in plasma at different time points by LC/MS/MS method. The pharmacokinetic behavior of the compounds of the present invention was studied and evaluated in rats.
27 healthy adult male Sprague-Dawley (SD) rats, purchased from SINO-BRITISH SIPPR/BK LAB. ANIMAL LTD., CO, Certificate No.: SCXK (Shanghai) 2008-0016, were divided into 9 groups, with 3 rats in each group.
The appropriate amount of test compounds was weighed and mixed with 0.5% CMC-Na to prepare a 0.5 mg/mL suspension by an ultrasonic method.
After an overnight fast, 27 SD rats were divided into 9 groups, and administered the compounds intragastrically at a dose of 5.0 mg/kg and an administration volume of 10 mL/kg.
Compounds of Example 6, Example 9, Example 11, Example 13, Example 15, Example 16, Example 17, Example 44, and Example 45 were administered intragastrically to rats. Blood samples (0.1 mL) were taken from the orbital sinus before administration, and at 0.5 h, 1.0 h, 2.0 h, 3.0 h, 4.0 h, 6.0 h, 8.0 h, 11.0 h, and 24.0 h after administration, stored in heparinized tubes, and centrifuged for 5 minutes at 3,500 rpm to separate blood plasma. The plasma samples were stored at −20° C. The rats were fed 2 hours after administration.
The concentration of the different test compounds in rat plasma after intragastrically administering the test compounds was determined by LC-MS/MS method. The linearity of the method is 1.00-2000 ng/ml. Plasma samples were analyzed after protein precipitation was accomplished by the addition of methanol.

The subject of data set [2] is PSA secretion of LNCaP-AR cells (AR-overexpressed LNCaP cells). Description: Agonist activity on PSA secretion of LNCaP-AR cells. It is filed as cell-based. The settings on record: 96 h, 4 days, OD value (test compounds)/OD value (blank control), blank control 100. The method, then:
The following in vitro assay was performed to determine the activity of a high concentration of the compounds of the present invention for agitating the PSA secretion of LNCaP-AR cells (AR-overexpressed LNCaP cells, referred to as “LNCaP-AR cells” for short, constructed by a retroviral transfection method).
LNCaP-AR cells were subcultured in cell culture medium, resuspended in active carbon culture medium, and then inoculated into a 96-well plate (100 μl/well) with an inoculation density of 5×10^4 cells/well.
The test compounds were dissolved in DMSO (dimethyl sulfoxide) and prepared as a 10 mM stock solution. When used, the stock solution was diluted with DMSO into the two concentrations of 2 mM and 0.6 mM. Then, the diluted concentrations were each diluted with 20× active carbon culture medium, in order to ensure DMSO concentration in each culture system was 0.5%. Diluted test compounds remained to be tested.
10 μl of diluted test compounds were added to a 96-well plate and mixed gently. 10 μl of 0.5% DMSO diluted with active carbon culture medium was added to the blank control group.
After 4 days of incubation, 60 μl of cell cultural supernatants were collected, and the OD value of PSA per well was measured on a NOVO Star microplate reader using PSA kit (abnova, KA0208).
Agonist activity of the test compounds of the present invention on PSA secretion of LNCaP-AR cells was evaluated by the percentage of OD value (test compounds)/OD value (blank control). When the percentage value is greater than 100, the test compounds have agonist activity on PSA secretion of LNCaP-AR cells compared to the blank control. Conversely, when the percentage value is less than 100, the test compounds have no agonist activity on PSA secretion of LNCaP-AR cells compared to the blank control.

Data set [3] deals with PSA secretion of LNCaP cells. Description: Inhibitory activity on PSA secretion of LNCaP cells. It is filed as cell-based. The settings on record: Homo sapiens, 96 h, read-out: IC50 (inhibition of PSA secretion of LNCaP cells). The method, then: The following in vitro assay was performed to determine the activity of the compounds of the present invention for inhibiting prostate specific antigen (PSA) secretion of LNCaP cells.
(11). Testosterone culture medium: RIPM 1640 culture medium, 10% CS-FBS, 1% Pen Strep, 1 nM testosterone
LNCaP cells were subcultured in cell culture medium, resuspended in active carbon culture medium, and then inoculated into a 96-well plate (100 μl/well) with an inoculation density of 5×10^4 cells/well.
The test compounds were dissolved in DMSO (dimethyl sulfoxide) and prepared as a 10 mM stock solution. When used, the stock solution was diluted with 5×DMSO and then diluted with a threefold gradient to obtain 8 gradient concentrations. Then, the 8 gradient concentrations were each diluted with 20× testosterone culture medium, in order to ensure DMSO concentration in each culture system was 0.5%. Diluted test compounds remained to be tested.
10 μl of diluted test compounds were added to a 96-well plate and mixed gently. 10 μl of 0.5% DMSO diluted with active carbon culture medium was added to the blank group, and 10 μl of 0.5% DMSO diluted with testosterone culture medium was added to the control group. The 96-well plate was cultured in an incubator under the conditions of 37° C. and 5% CO2.
After 4 days of incubation, 60 μl of cell cultural supernatants were collected, and the OD450 value per well was measured on a NOVO Star microplate reader using PSA kit (Abnova, KA0208).
(§1) IC50 values were calculated from the data of the inhibition rates of the test compounds at various concentrations.

In data set [4] the test system is LNCaP cells. Description: Proliferation inhibition of LNCaP cells (CCK-8). It is filed as cell-based. The settings on record: Homo sapiens, 144 h, cultured 3 + 3 days, CCK-8, OD at 450 nm. The method, then:
The following in vitro assay was performed to determine the activity of the compounds of the present invention for inhibiting the proliferation of LNCaP cells.
(1). Cell counting reagent CCK-8 (DOJINDO, CK04)
See experimental procedure from Test Example 1.
After LNCaP cells were cultured for 3 days, the culture medium, test compounds, blank group, and control group were renewed with half of the liquid volume, and were cultured for another 3 days. Then, all 96-well plates were mixed gently with 10 μl of CCK-8 and cultured in an incubator for 2-3 hours under the conditions of 37° C. and 5% CO2. The OD value per well was measured at 450 nm on a Victor3 microplate reader.
as §1

Where [5] appears, read: LNCaP cells, 1 nM testosterone medium, 4 days of incubation, PSA kit OD450.

These results are taken from patent US9586947B2, “Imidazoline derivatives, preparation methods thereof, and their applications in medicine” (priority 2012, dated 2017).

Read-outs that look alike come from different tables or passages of the source.

Broadly, the AUC is the area under the concentration-time curve, a measure of exposure. Usually half-life stands for how long it takes for the measured level to halve. The term MRT denotes the average time that molecules of a dose stay in the body. As a reminder, the Cmax is the maximum level reached in the sampled fluid or tissue. The term IC50 denotes the concentration needed to halve the response being measured. As for `CC1(C)C(=O)N(c2ccc(C#N)c(C(F)(F)F)c2)C(=S)N1c1ccc(OCC2(N)CC2)c(F)c1` [Example 6, 4-(3-(4-((1-Aminocyclopropyl)methoxy)-3-fluorophenyl)-4,4-dimethyl-5-oxo-2-thioxoimidazolidin-1-yl)-2-(trifluoromethyl)benzonitrile], in data set [1] (in vivo), the Vd/F was determined as 6.02 ± 1.69 L/kg, the AUC was found to be 16800 ± 7480 ng·h/mL, the CL/F was determined as 5.75 ± 2.44 mL/min/kg and the half-life is 13.1 ± 4.6 h. In addition, in data set [1] (in vivo), the MRT worked out at 17.8 ± 6.2 h and the Cmax was 1200 ± 330 ng/mL. In data set [2], this molecule displayed an activity at 3 µM of 93.2% and an activity at 10 µM of 100%. The IC50 in data set [3] (LNCaP) worked out at 24 nM.

In data set [2], `CC1(C)C(=O)N(c2ccc(C#N)c(C(F)(F)F)c2)C(=S)N1c1ccc(O[C@@H]2COC[C@H]2O)c(F)c1` [Example 8, 4-(3-(3-fluoro-4-(((3R,4R)-4-hydroxytetrahydrofuran-3-yl)oxy)phenyl)-4,4-dimethyl-5-oxo-2-thioxoimidazolidin-1-yl)-2-(trifluoromethyl)benzonitrile] gave an activity at 3 µM of 65% and an activity at 10 µM of 99.5%. The IC50 in data set [3] (LNCaP) was determined as 21 nM.

As to `CC1(C)C(=O)N(c2ccc(C#N)c(C(F)(F)F)c2)C(=S)N1c1ccc(O[C@H]2COC[C@@H]2O)c(F)c1` [Example 9, 4-(3-(3-fluoro-4-(((3S,4S)-4-hydroxytetrahydrofuran-3-yl)oxy)phenyl)-4,4-dimethyl-5-oxo-2-thioxoimidazolidin-1-yl)-2-(trifluoromethyl)benzonitrile], in data set [1] (in vivo), the Vd/F came to 4.59 ± 0.556 L/kg, the AUC was determined as 18800 ± 3300 ng·h/mL, the CL/F was found to be 4.52 ± 0.77 mL/min/kg and the half-life is 11.8 ± 1.1 h. In addition, in data set [1] (in vivo), the MRT was 18.3 ± 1.9 h and the Cmax came to 772 ± 83 ng/mL. In data set [2], this molecule registered an activity at 3 µM of 90.8% and an activity at 10 µM of 85%. In addition, in data set [3] (LNCaP), the IC50 is 26 nM.

Consider `CC1(C)C(=O)N(c2ccc(C#N)c(C(F)(F)F)c2)C(=S)N1c1ccc(OCCO)nc1` [Example 10, 4-(3-(6-(2-Hydroxyethoxy)pyridin-3-yl)-4,4-dimethyl-5-oxo-2-thioxoimidazolidin-1-yl)-2-(trifluoromethyl)benzonitrile], for which, in data set [2], the activity at 3 µM is 74.7% and the activity at 10 µM was 68.1%. The IC50 in data set [4] was found to be 131 nM. Moreover, the IC50 in data set [3] (setting [5]) stood at 23 nM.

In data set [2], `CC1(C)C(=O)N(c2ccc(C#N)c(C(F)(F)F)c2)C(=S)N1c1ccc(OCCO)c(F)c1` [Example 12, 4-(3-(3-Fluoro-4-(2-hydroxyethoxy)phenyl)-4,4-dimethyl-5-oxo-2-thioxoimidazolidin-1-yl)-2-(trifluoromethyl)benzonitrile] gave an activity at 3 µM of 69.6% and an activity at 10 µM of 90.7%. Besides, the half-maximal inhibitory concentration (IC50) in data set [4] is 146 nM. Further, in data set [3] (setting [5]), the 50% inhibitory concentration (IC50) worked out at 33 nM.

In the case of `CC1(C)C(=O)N(c2ccc(C#N)c(C(F)(F)F)c2)C(=S)N1c1ccc(OCC(O)CO)c(F)c1` (stereo not shown) [Example 13, 4-(3-(4-(2,3-Dihydroxypropoxy)-3-fluorophenyl)-4,4-dimethyl-5-oxo-2-thioxoimidazolidin-1-yl)-2-(trifluoromethyl)benzonitrile], in data set [1] (in vivo), the Vd/F was determined as 2.31 ± 0.553 L/kg, the AUC was 26500 ± 7380 ng·h/mL, the CL/F worked out at 3.35 ± 1.1 mL/min/kg and the half-life was 8.1 ± 0.65 h. Further, in data set [1] (in vivo), the MRT turned out to be 13.1 ± 1.5 h and the Cmax worked out at 1550 ± 197 ng/mL. In data set [2], this molecule had an activity at 3 µM of 53.6% and an activity at 10 µM of 71.5%. In addition, the half-maximal inhibitory concentration (IC50) in data set [3] (LNCaP) was determined as 88 nM.

`CC1(C)C(=O)N(c2ccc(C#N)c(C(F)(F)F)c2)C(=S)N1c1ccc(O[C@@H]2COC[C@H]2O)cc1` [Example 15, 4-(3-(4-(((3R,4R)-4-hydroxytetrahydrofuran-3-yl)oxy)phenyl)-4,4-dimethyl-5-oxo-2-thioxoimidazolidin-1-yl)-2-(trifluoromethyl)benzonitrile]: in data set [1] (in vivo), the Vd/F amounted to 3.97 ± 0.341 L/kg, the AUC came out at 21400 ± 4100 ng·h/mL, the CL/F was 3.99 ± 0.75 mL/min/kg and the half-life is 11.7 ± 1.7 h. Also, in data set [1] (in vivo), the MRT was 18.2 ± 2.3 h and the highest concentration (Cmax) turned out to be 999 ± 172 ng/mL. In data set [2], this molecule gave an activity at 3 µM of 77.5% and an activity at 10 µM of 84.8%. The IC50 in data set [3] (LNCaP) was found to be 52 nM.

As to `CC1(C)C(=O)N(c2ccc(C#N)c(C(F)(F)F)c2)C(=S)N1c1ccc(OC[C@H](O)CO)cc1` [Example 45, (R)-4-(3-(4-(2,3-Dihydroxypropoxy)phenyl)-4,4-dimethyl-5-oxo-2-thioxoimidazolidin-1-yl)-2-(trifluoromethyl)benzonitrile], in data set [1] (plasma), the Vd/F came to 3.27 ± 0.261 L/kg, the AUC was 13000 ± 365 ng·h/mL, the CL/F was 6.4 ± 0.18 mL/min/kg and the half-life is 5.9 ± 0.3 h. In data set [1] (plasma), the MRT is 10 ± 0.6 h and the Cmax amounted to 980 ± 173 ng/mL. In data set [4], the half-inhibitory concentration (IC50) was 74 nM. Also, in data set [3] (setting [5]), the IC50 was 35 nM.
